In PMC6934184, “Selective DNA-PKcs inhibition extends the therapeutic index of localized radiotherapy and chemotherapy” (The Journal of Clinical Investigation, 2019):

Target: T1, MAPK3 (ERK1) (Homo sapiens, UniProt P27361)
T1 construct: purchased Thermo Fisher Scientific (Life Technologies) SelectScreen
Assay: SelectScreen Z'LYTE
Assay type: biochemical
Outline: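 Percent values come from Thermo SelectScreen profiling of NU5455, combining activity and binding assays. CSF1R was run in Z'LYTE format at Km app ATP, and CAMK1 in Adapta format with ATP listed at 10.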

T1 sequence (P27361 whole entry): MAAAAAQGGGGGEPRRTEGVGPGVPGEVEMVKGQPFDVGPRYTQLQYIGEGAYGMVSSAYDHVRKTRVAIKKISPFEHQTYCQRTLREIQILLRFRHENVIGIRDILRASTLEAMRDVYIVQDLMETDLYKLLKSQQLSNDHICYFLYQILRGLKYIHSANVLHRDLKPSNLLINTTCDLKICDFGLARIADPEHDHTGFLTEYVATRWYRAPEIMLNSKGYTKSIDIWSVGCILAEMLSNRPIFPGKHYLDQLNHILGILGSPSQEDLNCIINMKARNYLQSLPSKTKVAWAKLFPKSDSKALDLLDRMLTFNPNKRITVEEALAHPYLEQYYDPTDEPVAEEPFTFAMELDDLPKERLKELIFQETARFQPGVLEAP

Question: For CN(C(=O)CN1CCOCC1)c1ccc2sc3c(-c4cccc5c(=O)cc(N6CC7CCC(C6)O7)oc45)cccc3c2c1 [NU5455], which inhibition at 1 µM is on record?
Answer: 9.5%
